According to US20230000081A1, “SYNERGISTIC PESTICIDAL COMPOSITIONS FOR DELIVERY OF PESTICIDAL ACTIVE INGREDIENTS AND METHODS THEREFOR” (0903608 B.C. Ltd., priority 2018, published 2023):
Values joined by “and” are separate entries in the source; they are usually repeats but may differ in a detail not shown here. Equal values may be shown once. One block for each molecule: values may come before it.

How the values were obtained:
Assay in all cases: Synergistic Growth Inhibition Assay (MIC, FIC index; 96-well microtiter plate, resazurin dye)
Assay type in all cases: cell-based
[1] = system: Botrytis cinerea; conditions: for MIC (A): Compound A alone
Method: (§1) In some embodiments, the synergistic action between the pesticidal active ingredient, and the at least one C4-C10 (or alternatively C11 or C12) saturated or unsaturated aliphatic acid components of the pesticidal compositions according to embodiments of the present disclosure was tested using a Synergistic Growth Inhibition Assay, which is derived from and related to a checkerboard assay as is known in the art for testing of combinations of antimicrobial agents. In the Synergistic Growth Inhibition Assay used in accordance with some embodiments of the present disclosure, multiple dilutions of combinations of pesticidal active ingredient and at least one C4-C10 saturated or unsaturated aliphatic acid agents are tested in individual cells for inhibitory activity against a target pest or pathogenic organism. In one such embodiment, the combinations of pesticidal active ingredient and C4-C10 (or alternatively C11 or C12) saturated or unsaturated aliphatic acid agents may preferably be tested in decreasing concentrations. In a further such embodiment, the combinations of pesticidal active ingredient and C4-C10 (or alternatively C11 or C12) saturated or unsaturated aliphatic acid agents may be tested in increasing concentrations. These multiple combinations of the pesticidal active ingredient and at least one C4-C10 (or alternatively C11 or C12) saturated or unsaturated aliphatic acid agents may be prepared in 96-well microtiter plates. In one such embodiment, the Synergistic Growth Inhibition Assay then comprises rows which each contain progressively decreasing concentrations of the pesticidal active ingredient and one or more C4-C10 (or alternatively C11 or C12) saturated or unsaturated aliphatic acid agents to test for the MIC of the agents in combination at which growth of the target pest or pathogen is inhibited. Thus, each well of the microtiter plate is a unique combination of the two agents, at which inhibitory efficacy of the combination against the target pest or pathogen can be determined.
(§2) In one embodiment according to the present disclosure, for each row of microtiter cells in the Synergistic Growth Inhibition Assay, the FIC index is calculated from the lowest concentration of the pesticidal active ingredient and one or more C4-C10 saturated or unsaturated aliphatic acid agents necessary to inhibit growth of a target pest or pathogen. The FIC of each component is derived by dividing the concentration of the agent present in that well of the microtiter plate by the minimal inhibitory concentration (MIC) needed of that agent alone to inhibit growth of the target pest or pathogen. The FIC index is then the sum of these values for both agents in that well of the microtiter plate. The FIC index is calculated for each row as follows:
(§3) FICindex=MICa/MICA+MICb/MICB
(§4) Fractional inhibitory concentration indices may then used as measure of synergy. […] When the FIC index is equal to 1, the combination is additive.
(§5) Then, serial dilutions of these initial compositions in successive wells in the row of the microtiter plate were used to assay the pesticidal composition under the same conditions to determine the concentration of the composition combining the two agents corresponding to the microtiter well in which growth inhibition of the target pest or organism ceases.
Similarly to as described above, Resazurin was used as an indicator of growth or inhibition of growth of Botrytis cinerea in the exemplary Synergistic Growth Inhibition Assay. In addition to the color change of the resazurin, an optical or visual examination of the microtiter well may also be made to additionally determine the presence of growth or inhibition of growth of the Botrytis cinerea.

[2] = system: Sclerotinia sclerotiorum; conditions: for MIC (A): Compound A alone
Method: as §1, §2, §3, §4, §5
Similarly to as described above, Resazurin was used as an indicator of growth or inhibition of growth of Sclerotinia sclerotiorum in the exemplary Synergistic Growth Inhibition Assay. […]

[3] = system: Alternaria solani; conditions: 7 days incubation; for MIC (A): Compound A alone
Method: as §1, with “In one such embodiment, the Synergistic Growth Inhibition Assay then comprises rows which each contain progressively decreasing concentrations of the pesticidal active ingredient and one or more C4-C10 (or alternatively C11 or C12) saturated or unsaturated aliphatic acid agents to test for the MIC of the agents in combination at which growth of the target pest or pathogen is inhibited.” left out
In one embodiment according to the present disclosure, for each row of microtiter cells in the Synergistic Growth Inhibition Assay, the FIC index is calculated from the lowest concentration of the pesticidal active ingredient and one or more C4-C10 saturated or unsaturated aliphatic acid agents necessary to inhibit growth of a target pest or pathogen. […] The FIC index is calculated for each row as follows: […]

[4] = system: Fusarium oxysporum; conditions: for MIC (A): Compound A alone
Method: as §1, §2, §3, §4
as §5, with “ceases. […]” for “ceases.”

[5] = Compound B (aliphatic acid) alone, Botrytis cinerea, 48 hours incubation
[6] = Compound B alone, 48 hours incubation
[7] = Fusarium oxysporum, incubation period of 48 hours
[8] = Sclerotinia sclerotiorum, 7 days incubation
[9] = Botrytis cinerea, 48 hours incubation

Molecule: O=C(O)CCCCCCCO [8-Hydroxyoctanoic acid]
MIC (B) [1, 5]: 2500 µg/mL

Molecule: O=C(O)CCCCCCCCCCCO [12-Hydroxydodecanoic acid]
MIC (B) [1, 5]: 100 µg/mL and 50 µg/mL

Molecule: CCCCCC(=O)O [Hexanoic acid]
MIC (B) [1, 6]: 156.2 µg/mL

MIC (B) [1, 5]: 2500 µg/mL
Molecule: CCCC(O)CC(=O)O (stereo not drawn) [3-Hydroxyhexanoic acid, 3-hydroxyhexanoic acid]

Molecule: CCCCCCCC/C=C\CCCCCCCC(=O)O [(9Z)-octadecenoic acid]
MIC (B) ([1]; Compound B alone, Botrytis cinerea, incubation period of 48 hours): 5000 µg/mL
MIC (B) ([2]; Compound B alone, Sclerotinia sclerotiorum, 7 days incubation): 5000 µg/mL

Molecule: Mancozeb
MIC (A) [3]: 500 µg/mL

MIC (B) [4, 6]: 10000 µg/mL
MIC (B) [1, 5]: 10000 µg/mL
Molecule: CC(O)CC(=O)O (stereo not drawn) [3-Hydroxybutyric acid, 3-hydroxybutyric acid]

Molecule: CO/C=C(/C(=O)OC)c1ccccc1Oc1cc(Oc2ccccc2C#N)ncn1 [Azoxystrobin, azoxystrobin, reference compound]
MIC (A) ([4]; Fusarium oxysporum, 48 hours incubation): 150 µg/mL
MIC (A) [4, 7]: 150 µg/mL
MIC (A) ([1]; Botrytis cinerea, incubation period of 2 days): 150 µg/mL
MIC (A) ([1]; Botrytis cinerea, incubation period of 48 hours): 75 µg/mL and 150 µg/mL
MIC (A) ([2]; 7 days incubation): 75 µg/mL
MIC (A) [2, 8]: 150 µg/mL
MIC (A) ([2]; Sclerotinia sclerotiorum, incubation period of 7 days): 150 µg/mL

MIC (B) [1, 5]: 125 µg/mL
Molecule: CCCCCCCC(O)CC(=O)O (stereo not drawn) [3-Hydroxydecanoic acid, 3-hydroxydecanoic acid]

Molecule: Cc1cc(C(F)(F)F)nn1CC(=O)N1CCC(c2nc(C3=NOC(c4c(F)cccc4F)C3)cs2)CC1 (stereo not drawn) [Oxathiapiprolin]
MIC (A) [1, 9]: 500 µg/mL

MIC (B) ([3]; Compound B (aliphatic acid) alone): 2500 µg/mL
Molecule: CCC(O)C(=O)O (stereo not drawn) [2-Hydroxybutyric acid]

Molecule: N#Cc1c[nH]cc1-c1cccc2c1OC(F)(F)O2 [Fludioxonil, fludioxonil]
MIC (A) ([4]; 24 hour incubation): 0.24063 µg/mL

Molecule: CC(C)(C)C(O)(CCc1ccc(Cl)cc1)Cn1cncn1 (stereo not drawn) [Tebuconazole]
MIC (A) [4, 7]: 225 µg/mL

Molecule: CO/C=C(/C(=O)OC)c1ccccc1COc1cccc(C(F)(F)F)n1 [Picoxystrobin]
MIC (A) [1, 9]: 250 µg/mL
MIC (A) [2, 8]: 500 µg/mL
MIC (A) [3]: 500 µg/mL
